Laboratory results reported in patent USRE36854E, “Vitamin D compounds and method of preparing these compounds” (Duphar International Research B.V., priority 1997, dated 2000).
Each block holds one molecule with its values, some of them ahead of it.

Assays:
[1] = target: T1, calf thymus intracellular vitamin D receptor (VDR) (Bos taurus, UniProt Q28037); assay: Affinity to intracellular vitamin D receptor (displacement of 3H-1α,25-DHCC); type: binding; settings: 10^-13 to 10^-7 M
T1 construct: 3H-1α,25-DHCC displacement
T1 sequence (Q28037 1-426): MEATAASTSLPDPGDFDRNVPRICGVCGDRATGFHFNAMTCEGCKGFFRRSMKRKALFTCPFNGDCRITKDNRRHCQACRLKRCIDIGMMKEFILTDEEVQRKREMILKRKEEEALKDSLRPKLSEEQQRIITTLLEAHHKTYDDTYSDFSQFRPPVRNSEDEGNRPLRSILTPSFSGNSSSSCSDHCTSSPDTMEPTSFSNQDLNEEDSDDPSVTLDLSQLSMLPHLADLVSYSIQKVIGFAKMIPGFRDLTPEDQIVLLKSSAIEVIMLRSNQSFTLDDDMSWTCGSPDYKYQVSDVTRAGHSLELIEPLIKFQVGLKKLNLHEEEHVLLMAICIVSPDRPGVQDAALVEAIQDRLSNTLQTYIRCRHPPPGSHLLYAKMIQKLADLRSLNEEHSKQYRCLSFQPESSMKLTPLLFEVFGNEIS
Source text: In this assay, ^3 H-1α,25-dihydroxycholecalciferol (^3 H-1α,25-DHCC), which is specifically bound to the VDR, is replaced by the tested compounds. Especially the tested compounds 11, 13 and 14 have a very high VDR-affinity. A high VDR-affinity is indicative for biologically active substances.

[2] = target: T2, human vitamin D binding protein (DBP) (Homo sapiens, UniProt P02774); assay: Affinity to vitamin D binding protein (competition with 3H-1α,25-DHCC); settings: DBP purified from total human serum; 10^-11 to 2.5×10^-6 M; FIGS. 1 and 2
T2 sequence (P02774 17-474): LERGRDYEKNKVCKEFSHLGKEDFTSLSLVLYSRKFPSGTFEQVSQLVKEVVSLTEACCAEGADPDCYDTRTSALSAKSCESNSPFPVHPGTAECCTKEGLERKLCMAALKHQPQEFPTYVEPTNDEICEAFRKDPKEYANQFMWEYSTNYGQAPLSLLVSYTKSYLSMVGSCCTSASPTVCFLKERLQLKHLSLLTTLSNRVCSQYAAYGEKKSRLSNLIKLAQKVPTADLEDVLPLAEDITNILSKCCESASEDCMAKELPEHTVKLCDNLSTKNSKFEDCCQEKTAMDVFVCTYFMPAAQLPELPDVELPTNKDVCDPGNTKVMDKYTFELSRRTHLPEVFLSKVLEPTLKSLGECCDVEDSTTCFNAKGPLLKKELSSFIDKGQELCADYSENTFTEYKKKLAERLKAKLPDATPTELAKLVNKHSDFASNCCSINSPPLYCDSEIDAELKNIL
Procedure: Vitamin D binding protein (DBP) is the specific carrier for vitamin D and its metabolites in blood. The biological activity of vitamin D compounds depends on their binding to DBP, because strong binding to DBP will reduce the intracellular access to the VDR. Binding to the DBP may also influence the half-life of the vitamin D derivatives in circulation. Weak binders are rapidly matabolized, which is a favourable aspect in topical application. In the assay DBP is incubated with ^3 H-1α,25-DHCC and 1α,25-DHCC or with several vitamin D compounds according to the invention. To this purpose, the vitamin compounds are dissolved in ethanol in concentrations ranging from 10^-11 to 2.5×10^-6 M. The percentage bound/unbound ^3 H-1α,25-DHCC is then calculated. DBP is purified from total human serum. The results are shown in the appended FIGS. 1 and 2. FIGS. 1 and 2 show the binding of vitamin D compounds to human vitamin D binding protein. [^3 H]1α,25(OH)2 D3 =^3 H-1α,25-DHCC; in both Figures .circle-solid.=1α,25-DHCC (known compound); in FIG. 1 .tangle-solidup.=compound 13 and .gradient.=compound 14; in FIG. 2 Δ=compound 11.

[3] = tested on: human leukemic cell line HL-60; assay: HL-60 cell differentiation assay (NBT reduction, non-specific esterase, May-Grunwald Giemsa); type: cell-based; settings: for induction of differentiation and maturation of the HL-60 cells: 10^-12 to 10^-6 M; for induction of differentiation and maturation of the HL-60 cells / NBT-reduction inducing capacity relative to 1α,25-DHCC (fold stronger) / differentiation in the cytological test (non-specific esterase and May-Grunwald Giemsa): HL-60; for NBT-reduction inducing capacity relative to 1α,25-DHCC (fold stronger): FIGS. 3 and 4; for concentration range of optimum effect: HL-60, cytological test
Procedure: Vitamin D compounds according to the invention are dissolved in ethanol in concentrations ranging from 10^-12 to 10^-6 M and tested for their capacity to induce cell differentiation in a HL-60 assay. In this assay, morphologic and biochemical examination of the human leukemic cell line HL-60 is done, in order to establish whether cell differentiation has taken place.
Differentiation is expressed as the maturation parameters nitroblue tetrazolium (NBT) reduction, non-specific esterase, and as the percentage of mature cells beyond the myelocyte stage which is visible after staining with May-Grunwald Giemsa. After culturing with the known 1α,25-DHCC or with vitamin D compounds of the invention, the percentage of cells containing black formazan deposits is determined. An increase in the percentage of NBT reducing cells indicates an increase in cell differentiation.
Proliferation and vitality of the cell cultures are established by counting the number of cells and by the trypan blue exclusion method.

[4] = tested on: intestinal cancer cell line Caco-2; assay: Caco-2 assay for intestinal calcium transport (45Ca2+ influx); type: cell-based; settings: for relative increase in Ca^2+ influx (1α,25-DHCC = 100): 10^-9 M
Procedure: The most well-known effect of 1α,25-DHCC is its action on the calcium metabolism, the calciotropic effect. Calciotropic target organs are the intestine, the bone and the kidney. The vitamin D compounds according to the invention are dissolved in ethanol and tested in the so-called Caco-2 assay for intestinal calcium (Ca) transport. In this assay, the vitamin D-induced influx of ^45 Ca^2+ is measured in monolayers of the intestinal cancer cell line Caco-2. This influx is corrected for the concentration-driven Ca^2+ influx and is a measure for the Ca transport across the intestinal wall. The Caco-2 cells are known to have vitamin D receptors. Increased intestinal calcium transport can be the first step leading to a rise in blood calcium levels (and eventually to hypercalcemia). […] The values in the table represent the relative increase in Ca^2 + influx (the value for 1α,25-DHCC is arbitrarily fixed at 100).

[5] = tested on: HL-60 cells / intestinal Ca^2+ transport; assay: Cell differentiation versus calciotropic effect (ratio of HL-60 NBT reduction to intestinal Ca2+ transport); type: cell-based, human; settings: for selectivity of action / better ratio than 1α,25-DHCC (fold): differentiation versus intestinal Ca transport; for ratio relative to DHCC: fraction normalised to 1α,25-DHCC = 1.00; for fraction (concentration for 50% NBT reduction in HL-60 cells / concentration for half-maximal increase in intestinal Ca^2+ transport): smaller ratio = higher relative cell differentiating capacity
Source text: Therefore, it should be very advantageous to develop compounds with a high selectivity of biological action. In other words, compounds in which the ratio between the induction of cell differentiation and calciotropic effects, e.g. the stimulation of intestinal Ca transport, is changed compared to 1α,25-DHCC. The ratio between differentiation-inducing capacity and the stimulation of intestinal Ca transport is defined as the fraction between the concentration at which 50% NBT reduction in HL-60 cells is obtained, and the concentration at which a half-maximal increase in intestinal Ca^2+ transport is reached. The smaller the ratio, the higher the relative cell differentiating capacity.

rabbit kidney cells = assay: Rabbit kidney cell assay (45Ca2+ reabsorption); type: cell-based; settings: rabbit renal cell cultures; for increase in Ca^2+ -reabsorption: 10^-9 M
Procedure: Together with the intestine and the bone, the kidney is one of the major target organs of 1α,25-DHCC. The kidney plays an extremely important role in calcium homeostasis, since about 98% of the calcium has to be reabsorbed in the kidneys in order to prevent calcium loss and hypocalcemia. The vitamin D compounds according to the invention are dissolved in ethanol and tested in the rabbit kidney cell assay. In this assay, reabsorption of ^45 Ca^2+ is measured in monolayers of rabbit kidney cells. The cells are isolated by immunodissection of connecting tubules with the aid of monoclonal antibodies. […] The values in the Table represent the increase in Ca^2+ -reabsorption in mmol/cm^2 /h.

Structure (SMILES): C=C1/C(=C\C=C2/CCC[C@@]3(C)C2CCC3[C@H](C)CCCC(O)(C2CC2)C2CC2)C[C@@H](O)C[C@@H]1O (stereo partly drawn) [Compound 11]
VDR-affinity [1]: very high | binding to the DBP, compared to the known 1α,25-DHCC [2]: bind rather weakly | differentiation in the cytological test (non-specific esterase and May-Grunwald Giemsa) [3]: good differentiators | concentration range of optimum effect [3]: 10^-8 to 10^-7 M | induction of differentiation and maturation of the HL-60 cells [3]: induce differentiation and maturation | NBT-reduction inducing capacity relative to 1α,25-DHCC (fold stronger) [3]: about 5 × | stimulation of intestinal calcium absorption compared with 1α,25-DHCC [4]: weaker stimulators | relative increase in Ca^2+ influx (1α,25-DHCC = 100) ([4]; experiment 1): 79 | stimulation of renal Ca-reabsorption compared with compound 12 and 1α,25-DHCC (rabbit kidney cells): weaker stimulators | increase in Ca^2+ -reabsorption (rabbit kidney cells): 2.4 mmol/cm^2 /h | selectivity of action / better ratio than 1α,25-DHCC (fold) [5]: 8 × | ratio relative to DHCC [5]: 0.13 | fraction (concentration for 50% NBT reduction in HL-60 cells / concentration for half-maximal increase in intestinal Ca^2+ transport) [5]: 14.4

Structure (SMILES): C=C1/C(=C\C=C2/CCC[C@]3(C)[C@@H]([C@H](C)CCCC(C)(C)O)CC[C@@H]23)C[C@@H](O)C[C@@H]1O [1α,25-DHCC, 1α,25-dihydroxycholecalciferol, reference compound]
induction of differentiation and maturation of the HL-60 cells [3]: induce differentiation and maturation | relative increase in Ca^2+ influx (1α,25-DHCC = 100) ([4]; experiment 1): 100 | relative increase in Ca^2+ influx (1α,25-DHCC = 100) ([4]; experiment 2): 100 | increase in Ca^2+ -reabsorption (rabbit kidney cells): 13.4 mmol/cm^2 /h | ratio relative to DHCC [5]: 1.00 | fraction (concentration for 50% NBT reduction in HL-60 cells / concentration for half-maximal increase in intestinal Ca^2+ transport) [5]: 107

Structure (SMILES): C=C1/C(=C\C=C2/CCC[C@@]3(C)C2CCC3[C@H](C)CCCC(O)(C(C)(C)C)C(C)(C)C)C[C@@H](O)C[C@@H]1O (stereo partly drawn) [Compound 12]
induction of differentiation and maturation of the HL-60 cells [3]: induce differentiation and maturation | NBT-reduction inducing capacity relative to 1α,25-DHCC (fold stronger) [3]: about 5 × | relative increase in Ca^2+ influx (1α,25-DHCC = 100) ([4]; experiment 1): 99 | increase in Ca^2+ -reabsorption (rabbit kidney cells): 12.8 mmol/cm^2 /h | selectivity of action / better ratio than 1α,25-DHCC (fold) [5]: 4 × | ratio relative to DHCC [5]: 0.28 | fraction (concentration for 50% NBT reduction in HL-60 cells / concentration for half-maximal increase in intestinal Ca^2+ transport) [5]: 29.7

Further lines, with some results ahead:

VDR-affinity [1]: very high | binding to the DBP, compared to the known 1α,25-DHCC [2]: bind rather weakly
Structure (SMILES): C=C1/C(=C\C=C2/CCC[C@@]3(CC)C2CCC3[C@H](C)CCCC(O)(C(C)C)C(C)C)C[C@@H](O)C[C@@H]1O (stereo partly drawn) [Compound 14]
induction of differentiation and maturation of the HL-60 cells [3]: induce differentiation and maturation | NBT-reduction inducing capacity relative to 1α,25-DHCC (fold stronger) [3]: about 10 × | stimulation of intestinal calcium absorption compared with 1α,25-DHCC [4]: weaker stimulators | relative increase in Ca^2+ influx (1α,25-DHCC = 100) ([4]; experiment 2): 78 | selectivity of action / better ratio than 1α,25-DHCC (fold) [5]: 50 × | ratio relative to DHCC [5]: 0.02 | fraction (concentration for 50% NBT reduction in HL-60 cells / concentration for half-maximal increase in intestinal Ca^2+ transport) [5]: 2.6

VDR-affinity [1]: very high | binding to the DBP, compared to the known 1α,25-DHCC [2]: very weak binder
Structure (SMILES): C=C1/C(=C\C=C2/CCC[C@@]3(C)C2CCC3[C@H](C)CCCC(O)(C(C)C)C(C)C)C[C@@H](O)C[C@@H]1O (stereo partly drawn) [Compound 13]
differentiation in the cytological test (non-specific esterase and May-Grunwald Giemsa) [3]: good differentiators | concentration range of optimum effect [3]: 10^-8 to 10^-7 M | induction of differentiation and maturation of the HL-60 cells [3]: induce differentiation and maturation | NBT-reduction inducing capacity relative to 1α,25-DHCC (fold stronger) [3]: about 10 × | stimulation of intestinal calcium absorption compared with 1α,25-DHCC [4]: weaker stimulators | relative increase in Ca^2+ influx (1α,25-DHCC = 100) ([4]; experiment 2): 65 | stimulation of renal Ca-reabsorption compared with compound 12 and 1α,25-DHCC (rabbit kidney cells): weaker stimulators | increase in Ca^2+ -reabsorption (rabbit kidney cells): -3.7 mmol/cm^2 /h | selectivity of action / better ratio than 1α,25-DHCC (fold) [5]: 50 × | ratio relative to DHCC [5]: 0.02 | fraction (concentration for 50% NBT reduction in HL-60 cells / concentration for half-maximal increase in intestinal Ca^2+ transport) [5]: 2.5
